Here are results for 19 compounds from patent EP0465323A1, “Pyrimidin derivatives, angiotensin II receptor antagonists, their process of preparation and pharmaceutical compositions containing them” (LABORATOIRES UPSA, priority 1990, dated 1992).

Each structure is given as a SMILES string.

For the assay, the system named is récepteurs surrénaliens de l'angiotensine II. The experiment in a line: Displacement of radioligand [125I]-SIAII specifically bound to rat adrenal angiotensin II receptors. In kind it is binding. As to conditions: rat adrenal homogenate, 60 min at 25°C. From the text:
L'affinité des produits des exemples pour les récepteurs de l'angiotensine Il est évaluée par technique de déplacement d'un radioligand spécifiquement fixé sur les récepteurs surrénaliens de l'angiotensine II, chez le rat.
Une aliquote d'un homogénat de surrénales de rat incube en présence d'une concentration unique de [^125| ] - SIAII (Sar^1, Tyr^4, lle^8- angiotensine II), antagoniste des récepteurs de l'angiotensine II, et de deux concentrations d'agents compétiteurs (10^-5 M, 10-^7 M), durant 60 min à 25°C.
La réaction est achevée par ajout de tampon, puis rapide filtration à travers des filtres de papier de verre. La liaison non spécifique est déterminée en présence d'angiotensine II.
Les résultats sont exprimés, pour les concentrations testées, en pourcentage de déplacement du radioligand spécifiquement fixé sur les récepteurs surrénaliens de l'angiotensine II.

As to `CCCCc1nc(-c2ccccc2)nc(SCCO)c1Cc1ccc(NC(=O)c2ccccc2S(=O)(=O)O)cc1` [Exemple 77, Acide [[n-butyl-6 phényl-2 (hydroxy éthyl thio)-4 pyrimidine-yl-5]méthylphényl-yl-4] amino carbonyl-2 benzène sulfonique], the “% de déplacement du ligand marqué” value was determined as 63% (competitor 1E-5M, 10 µM) and 4% (competitor 1E-7M, 0.1 µM).

Consider `CCCCc1nc(C)nc(SCCO)c1Cc1ccc(NC(=O)c2ccccc2S(=O)(=O)O)cc1` [Exemple 55, Acide [(n-butyl-6 méthyl-2 hydroxyéthylmercapto-4 pyrimidine-yl-5)méthylphényl-yl-4] amino carbonyl-2 benzène sulfonique], for which the “% de déplacement du ligand marqué” value worked out at 86% (competitor 1E-5M, 10 µM) and 60% (competitor 1E-7M, 0.1 µM).

Take `CCCc1nc(C)nc(SCC(=O)OCC)c1Cc1ccc(-c2ccccc2-c2nn[nH]n2)cc1` [Exemple 33, [n-Propyl-6 méthyl-2 [(tétrazol-yl-5)-2' biphényl-yl-4]méthyl-5 pyrimidine-yl-4] mercapto acétate d'éthyle]: the “% de déplacement du ligand marqué” value came to 69% (competitor 1E-5M, 10 µM) and 62% (competitor 1E-7M, 0.1 µM).

With `CCCCc1nc(C)nc(SCC(=O)OCC)c1Cc1ccc(NC(=O)c2ccccc2S(=O)(=O)O)cc1` [Exemple 61, Acide [[n-Butyl-6 Méthyl-2 (éthoxycarbonyl méthyl thio)-4 pyrimidine-yl-5]méthylphényl-yl-4] amino carbonyl-2 benzène sulfonique], the “% de déplacement du ligand marqué” value (competitor 1E-5M, 10 µM) turned out to be 96% and the “% de déplacement du ligand marqué” value (competitor 1E-7M, 0.1 µM) is recorded as 63%.

On to `CCCc1nc(C)n(CC(=O)OCC)c(=O)c1Cc1ccc(-c2ccccc2-c2nn[nH]n2)cc1` [Exemple 32, [n-Propyl-4 méthyl-2 oxo-6 [(tétrazol-yl-5)-2' biphényl-yl-4]méthyl-5 pyrimidine-yl-1 (6H)-] acétate d'éthyle], for which the “% de déplacement du ligand marqué” value is given as 94% (competitor 1E-5M, 10 µM) and 67% (competitor 1E-7M, 0.1 µM).

Turning to `CCCc1nc(C)nc(SCCO)c1Cc1ccc(NC(=O)c2ccccc2S(=O)(=O)O)cc1` [Exemple 54, Acide [(n-Propyl-6 méthyl-2 hydroxyéthylmercapto-4 pyrimidine-yl-5)methylphenyl-yl-4] amino carbonyl-2 benzène sulfonique], the “% de déplacement du ligand marqué” value (competitor 1E-5M, 10 µM) amounted to 84% and the “% de déplacement du ligand marqué” value (competitor 1E-7M, 0.1 µM) was found to be 65%.

For `CCCc1nc(C)nc(N2CCN(c3ccccc3OC)CC2)c1Cc1ccc(NC(=O)c2ccccc2S(=O)(=O)O)cc1` [Exemple 58, Acide [[n-Propyl-6 méthyl-2 ((méthoxy-2 phényl)pipérazine-yl-4)-4 pyrimidine-yl-5]méthylphényl-yl-4] amino carbonyl-2 benzène sulfonique], the “% de déplacement du ligand marqué” value runs as follows: (competitor 1E-5M, 10 µM) 78%; (competitor 1E-7M, 0.1 µM) 53%.

On to `CCCCc1nc(C(C)C)nc(SCC(=O)OCC)c1Cc1ccc(NC(=O)c2ccccc2S(=O)(=O)O)cc1` [Exemple 76, Acide [[n-butyl-6 isopropyl-2 (éthoxy carbonyl méthyl thio)-4 pyrimidine-yl-5]méthylphényl-yl-4] amino carbonyl-2 benzène sulfonique], for which the “% de déplacement du ligand marqué” value (competitor 1E-5M, 10 µM) amounted to 93% and the “% de déplacement du ligand marqué” value (competitor 1E-7M, 0.1 µM) is listed as 37%.

For `CCCc1nc(C)nc(OC(=O)N(C)C)c1Cc1ccc(NC(=O)c2ccccc2S(=O)(=O)O)cc1` [Exemple 27, Acide [[n-propyl-6 méthyl-2 (N,N-diméthyl amino carbonyloxy)-4 pyrimidine-yl-5]méthylphényl-yl-4] amino carbonyl-2 benzène sulfonique], the “% de déplacement du ligand marqué” value reads like this: (competitor 1E-5M, 10 µM) 76%; (competitor 1E-7M, 0.1 µM) 20%.

Regarding `CCCCc1nc(C(C)C)nc(SCCO)c1Cc1ccc(NC(=O)c2ccccc2S(=O)(=O)O)cc1` [Exemple 78, Acide [[n-butyl-6 isopropyl-2 (hydroxy éthyl thio)-4 pyrimidine-yl-5]méthylphényl-yl-4] amino carbonyl-2 benzène sulfonique], the “% de déplacement du ligand marqué” value (competitor 1E-5M, 10 µM) is 74% and the “% de déplacement du ligand marqué” value (competitor 1E-7M, 0.1 µM) was 41%.

`CCCc1nc(C)nc(OC)c1Cc1ccc(-c2ccccc2-c2nn[nH]n2)cc1` [Exemple 31, n-Propyl-6 méthy1-2 méthoxy-4 [(tétrazol-yl-5)-2' biphényl-yl-4] méthyl-5 pyrimidine]: the “% de déplacement du ligand marqué” value by setting is: (competitor 1E-5M, 10 µM) 71%; (competitor 1E-7M, 0.1 µM) 51%.

Regarding `CCCc1nc(C)n(CC(=O)OCC)c(=O)c1Cc1ccc(NC(=O)c2ccccc2S(=O)(=O)O)cc1` [Exemple 13], the “% de déplacement du ligand marqué” value is given as 96% (competitor 1E-5M, 10 µM) and 64% (competitor 1E-7M, 0.1 µM).

Turning to `CCCCc1nc(-c2ccccc2)nc(SCC(=O)OCC)c1Cc1ccc(NC(=O)c2ccccc2S(=O)(=O)O)cc1` [Exemple 75, Acide [[n-butyl-6 phényl-2 (éthoxy carbonyl méthyl thio)-4 pyrimidine-yl-5]méthylphényl-yl-4] amino carbonyl-2 benzène sulfonique], the “% de déplacement du ligand marqué” value (competitor 1E-5M, 10 µM) worked out at 72% and the “% de déplacement du ligand marqué” value (competitor 1E-7M, 0.1 µM) is 0%.

Consider `CCCc1nc(C)nc(N2CCOCC2)c1Cc1ccc(NC(=O)c2ccccc2S(=O)(=O)O)cc1` [Exemple 56, Acide [[n-Propyl-6 méthyl-2 (morpholine-yl-1)-4 pyrimidine-yl-5]méthylphényl-yl-4] amino carbonyl-2 benzène sulfonique], for which the “% de déplacement du ligand marqué” value (competitor 1E-5M, 10 µM) is listed as 86% and the “% de déplacement du ligand marqué” value (competitor 1E-7M, 0.1 µM) was 59%.

For `CCCc1nc(C)nc(SC)c1Cc1ccc(NC(=O)c2ccccc2S(=O)(=O)O)cc1` [Exemple 59, Acide [[n-Propyl-6 méthyl-2 méthylthio-4 pyrimidine-yl-5]méthylphényl-yl-4] amino carbonyl-2 benzène sulfonique], the “% de déplacement du ligand marqué” value is, setting by setting: (competitor 1E-5M, 10 µM) 89%; (competitor 1E-7M, 0.1 µM) 57%.

Turning to `CCCc1nc(C)n(CC(=O)O)c(=O)c1Cc1ccc(NC(=O)c2c(Cl)ccc(Cl)c2C(=O)O)cc1` [Exemple 14, Acide [n-propyl-4 méthyl-2 oxo-6 [(carboxy-2 dichloro-3,6-phényl)carbonylamino-4 phénylméthyl]-5 pyrimidine-yl-1 (6H)-] acétique], the “% de déplacement du ligand marqué” value is, setting by setting: (competitor 1E-5M, 10 µM) 81%; (competitor 1E-7M, 0.1 µM) 38%.

`CCCCc1nc(C)nc(N)c1Cc1ccc(NC(=O)c2ccccc2S(=O)(=O)O)cc1` [Exemple 57, Acide [(n-Butyl-6 méthyl-2 amino-4 pyrimidine-yl-5)méthylphényl-yl-4] amino carbonyl-2 benzène sulfonique]: the “% de déplacement du ligand marqué” value by setting is: (competitor 1E-5M, 10 µM) 80%; (competitor 1E-7M, 0.1 µM) 69%.

In the case of `CCCc1nc(C)nc(SCC(=O)OCC)c1Cc1ccc(NC(=O)c2ccccc2S(=O)(=O)O)cc1` [Exemple 24, Acide [[n-Propyl-6 méthyl-2 (éthoxycarbonyl méthyl mercapto)-4 pyrimidine-yl-5]méthylphényl-yl-4] amino carbonyl-2 benzène sulfonique], the “% de déplacement du ligand marqué” value (competitor 1E-5M, 10 µM) was determined as 93% and the “% de déplacement du ligand marqué” value (competitor 1E-7M, 0.1 µM) is recorded as 62%.

Turning to `CCCc1nc(C)nc(OCCO)c1Cc1ccc(-c2ccccc2C(=O)O)cc1` [Exemple 16, Acide [n-propyl-6 méthyl-2 hydroxy éthyloxy-4 pyrimidine-yl-5] méthyl-4' biphényl-2 carboxylique], the “% de déplacement du ligand marqué” value (competitor 1E-5M, 10 µM) came out at 65% and the “% de déplacement du ligand marqué” value (competitor 1E-7M, 0.1 µM) is reported as 31%.
